Assay results reported in ChEMBL document CHEMBL3112450, “Synthesis and in vitro antitumor evaluation of primary amine substituted quinazoline linked benzimidazole” (Bioorg Med Chem Lett, 2014).

Key:
Format in all cases: functional
U-251 [1] = experiment: Cytotoxicity against human U251 cells assessed as cell growth at 10^-6 M after 48 hrs by SRB assay; settings: U-251, 48 h, read-out: Activity
NCI-H522 [2] = experiment: Cytotoxicity against human NCI-H522 cells after 48 hrs by SRB assay; settings: NCI-H522, 48 h
SK-MEL-5 = experiment: Cytotoxicity against human SK-MEL-5 cells assessed as cell growth at 10^-7 M after 48 hrs by SRB assay; settings: SK-MEL-5, 48 h, read-out: Activity
NCI-H23 = experiment: Cytotoxicity against human NCI-H23 cells assessed as cell growth at 10^-4 M after 48 hrs by SRB assay; settings: NCI-H23, 48 h, read-out: Activity
RXF 393 [3] = experiment: Cytotoxicity against human RXF393 cells assessed as cell growth at 10^-4 M after 48 hrs by SRB assay; settings: RXF 393, 48 h, read-out: Activity
TK-10 = experiment: Cytotoxicity against human TK10 cells after 48 hrs by SRB assay; settings: TK-10, 48 h
CCRF-CEM = experiment: Cytotoxicity against human CCRF-CEM cells after 48 hrs by SRB assay
[4] = Cytotoxicity against human OVCAR5 cells after 48 hrs by SRB assay; settings: OVCAR-5, 48 h
HCT-15 = experiment: Cytotoxicity against human HCT15 cells after 48 hrs by SRB assay; settings: HCT-15, 48 h
SK-OV-3 = experiment: Cytotoxicity against human SKOV3 cells after 48 hrs by SRB assay; settings: SK-OV-3, 48 h
BT-549 [5] = experiment: Cytotoxicity against human BT549 cells assessed as cell growth at 10^-7 M after 48 hrs by SRB assay; settings: BT-549, 48 h, read-out: Activity
NCI-H460 = experiment: Cytotoxicity against human NCI-H460 cells assessed as cell growth at 10^-8 M after 48 hrs by SRB assay; settings: NCI-H460, 48 h, read-out: Activity
SF-539 [6] = experiment: Cytotoxicity against human SF539 cells assessed as cell growth at 10^-8 M after 48 hrs by SRB assay; settings: SF-539, 48 h, read-out: Activity
T47D = experiment: Cytotoxicity against human T47D cells assessed as cell growth at 10^-7 M after 48 hrs by SRB assay; settings: read-out: Activity
SK-MEL-28 [7] = experiment: Cytotoxicity against human SK-MEL-28 cells after 48 hrs by SRB assay; settings: SK-MEL-28, 48 h
ACHN = experiment: Cytotoxicity against human ACHN cells assessed as cell growth at 10^-6 M after 48 hrs by SRB assay; settings: read-out: Activity
SF-539 [8] = experiment: Cytotoxicity against human SF539 cells assessed as cell growth at 10^-4 M after 48 hrs by SRB assay; settings: SF-539, 48 h, read-out: Activity
KM12 [9] = experiment: Cytotoxicity against human KM12 cells assessed as cell growth at 10^-7 M after 48 hrs by SRB assay; settings: KM12, 48 h, read-out: Activity
RPMI-8226 [10] = experiment: Cytotoxicity against human RPMI8226 cells assessed as cell growth at 10^-4 M after 48 hrs by SRB assay; settings: RPMI-8226, 48 h, read-out: Activity
RXF 393 [11] = experiment: Cytotoxicity against human RXF393 cells assessed as cell growth at 10^-8 M after 48 hrs by SRB assay; settings: RXF 393, 48 h, read-out: Activity
SK-MEL-28 [12] = experiment: Cytotoxicity against human SK-MEL-28 cells assessed as cell growth at 10^-6 M after 48 hrs by SRB assay; settings: SK-MEL-28, 48 h, read-out: Activity
IGROV-1 = experiment: Cytotoxicity against human IGROV1 cells after 48 hrs by SRB assay; settings: IGROV-1, 48 h
SR = experiment: Cytotoxicity against human SR cells assessed as cell growth at 10^-8 M after 48 hrs by SRB assay; settings: read-out: Activity
BT-549 [13] = experiment: Cytotoxicity against human BT549 cells assessed as cell growth at 10^-4 M after 48 hrs by SRB assay; settings: BT-549, 48 h, read-out: Activity
NCI-H522 [14] = experiment: Cytotoxicity against human NCI-H522 cells assessed as cell growth at 10^-6 M after 48 hrs by SRB assay; settings: NCI-H522, 48 h, read-out: Activity
[15] = Cytotoxicity against human NCI-ADR-RES cells assessed as cell growth at 10^-6 M after 48 hrs by SRB assay; settings: read-out: Activity
RPMI-8226 [16] = experiment: Cytotoxicity against human RPMI8226 cells after 48 hrs by SRB assay; settings: RPMI-8226, 48 h
KM12 [17] = experiment: Cytotoxicity against human KM12 cells assessed as cell growth at 10^-4 M after 48 hrs by SRB assay; settings: KM12, 48 h, read-out: Activity
K562 [18] = experiment: Cytotoxicity against human K562 cells after 48 hrs by SRB assay; settings: K562, 48 h
NCI-H226 = experiment: Cytotoxicity against human NCI-H226 cells assessed as cell growth at 10^-4 M after 48 hrs by SRB assay; settings: NCI-H226, 48 h, read-out: Activity
K562 [19] = experiment: Cytotoxicity against human K562 cells assessed as cell growth at 10^-6 M after 48 hrs by SRB assay; settings: K562, 48 h, read-out: Activity
NCI-H322M = experiment: Cytotoxicity against human NCI-H322M cells after 48 hrs by SRB assay
A498 = experiment: Cytotoxicity against human A498 cells after 48 hrs by SRB assay; settings: A498, 48 h
DU-145 = experiment: Cytotoxicity against human DU145 cells assessed as cell growth at 10^-4 M after 48 hrs by SRB assay; settings: DU-145, 48 h, read-out: Activity
BT-549 [20] = experiment: Cytotoxicity against human BT549 cells after 48 hrs by SRB assay; settings: BT-549, 48 h
U-251 [21] = experiment: Cytotoxicity against human U251 cells assessed as cell growth at 10^-8 M after 48 hrs by SRB assay; settings: U-251, 48 h, read-out: Activity
[22] = Cytotoxicity against human Hs578T cells assessed as cell growth at 10^-4 M after 48 hrs by SRB assay; settings: Hs-578T, read-out: Activity
MDA-MB-468 = experiment: Cytotoxicity against human MDA-MB-468 cells assessed as cell growth at 10^-4 M after 48 hrs by SRB assay; settings: MDA-MB-468, 48 h, read-out: Activity
SNB-19 = experiment: Cytotoxicity against human SNB19 cells assessed as cell growth at 10^-4 M after 48 hrs by SRB assay; settings: SNB-19, 48 h, read-out: Activity

C=CCn1c(C)nc2ccc(Nc3nc(Nc4ccc5nc(C)n(CC=C)c5c4)c4ccccc4n3)cc21
growth at 1 µM (U-251 [1]): 89%
GI50 (NCI-H522 [2]): 2030 nM
TGI (NCI-H522 [2]): 3530 nM
growth at 0.1 µM (SK-MEL-5): 94%
growth at 100 µM (NCI-H23): -42%
growth at 100 µM (RXF 393 [3]): -31%
GI50 (TK-10): 2040 nM
TGI (TK-10): 3500 nM
GI50 (CCRF-CEM): 2090 nM
LC50 (CCRF-CEM): > 100000 nM
GI50 [4]: 1700 nM
LC50 [4]: 5620 nM
TGI [4]: 3090 nM
GI50 (HCT-15): 1770 nM
TGI (HCT-15): 3550 nM
GI50 (SK-OV-3): 1720 nM
LC50 (concentration killing 50% of cells) (SK-OV-3): 5560 nM
TGI (SK-OV-3): 3090 nM
growth at 0.1 µM (BT-549 [5]): 95%
growth at 0.01 µM (NCI-H460): 102%
growth at 0.01 µM (SF-539 [6]): 96%
growth at 0.1 µM (T47D): 92%
GI50 (SK-MEL-28 [7]): 1840 nM
TGI (SK-MEL-28 [7]): 3280 nM
growth at 1 µM (ACHN): 91%
growth at 100 µM (SF-539 [8]): -61%
growth at 0.1 µM (KM12 [9]): 92%
growth at 100 µM (RPMI-8226 [10]): 5%
growth at 0.01 µM (RXF 393 [11]): 95%
growth at 1 µM (SK-MEL-28 [12]): 102%
GI50 (IGROV-1): 1830 nM
TGI (IGROV-1): 3400 nM
growth at 0.01 µM (SR): 97%
growth at 100 µM (BT-549 [13]): -32%
growth at 1 µM (NCI-H522 [14]): 114%
growth at 1 µM [15]: 90%
GI50 (RPMI-8226 [16]): 1870 nM
LC50 (RPMI-8226 [16]): > 100000 nM
growth at 100 µM (KM12 [17]): -31%
GI50 (K562 [18]): 1420 nM
LC50 (concentration killing 50% of cells) (K562 [18]): > 100000 nM
growth at 100 µM (NCI-H226): -38%
growth at 1 µM (K562 [19]): 68%
GI50 (NCI-H322M): 1710 nM
LC50 (NCI-H322M): 6150 nM
TGI (NCI-H322M): 3240 nM
GI50 (A498): 442 nM
TGI (A498): 2080 nM
growth at 100 µM (DU-145): -75%
GI50 (BT-549 [20]): 1620 nM
TGI (BT-549 [20]): 3160 nM
growth at 0.01 µM (U-251 [21]): 96%
growth at 100 µM [22]: -15%
growth at 100 µM (MDA-MB-468): -33%
growth at 100 µM (SNB-19): -34%

C=CCn1c(C)nc2cc(Nc3nc(Nc4ccc5nc(C)n(CC=C)c5c4)c4ccccc4n3)ccc21
growth at 1 µM (U-251 [1]): -88%
GI50 (NCI-H522 [2]): 171 nM
TGI (NCI-H522 [2]): 332 nM
growth at 0.1 µM (SK-MEL-5): 94%
growth at 100 µM (NCI-H23): -28%
growth at 100 µM (RXF 393 [3]): -31%
GI50 (TK-10): 522 nM
LC50 (TK-10): 4130 nM
TGI (TK-10): 1710 nM
GI50 (CCRF-CEM): 296 nM
LC50 (CCRF-CEM): > 100000 nM
TGI (CCRF-CEM): 769 nM
GI50 [4]: 400 nM
TGI [4]: 1490 nM
GI50 (HCT-15): 352 nM
GI50 (SK-OV-3): 1900 nM
TGI (SK-OV-3): 3770 nM
growth at 0.1 µM (BT-549 [5]): 101%
growth at 0.01 µM (NCI-H460): 102%
growth at 0.01 µM (SF-539 [6]): 96%
growth at 0.1 µM (T47D): 94%
GI50 (SK-MEL-28 [7]): 2020 nM
TGI (SK-MEL-28 [7]): 3860 nM
growth at 1 µM (ACHN): 35%
growth at 100 µM (SF-539 [8]): -94%
growth at 0.1 µM (KM12 [9]): 98%
growth at 100 µM (RPMI-8226 [10]): -20%
growth at 0.01 µM (RXF 393 [11]): 101%
growth at 1 µM (SK-MEL-28 [12]): 104%
GI50 (IGROV-1): 1540 nM
TGI (IGROV-1): 3010 nM
growth at 0.01 µM (SR): 95%
growth at 100 µM (BT-549 [13]): -46%
growth at 1 µM (NCI-H522 [14]): -83%
growth at 1 µM [15]: 85%
GI50 (RPMI-8226 [16]): 1240 nM
LC50 (RPMI-8226 [16]): > 100000 nM
TGI (RPMI-8226 [16]): 3930 nM
growth at 100 µM (KM12 [17]): -77%
GI50 (K562 [18]): 218 nM
growth at 100 µM (NCI-H226): -12%
growth at 1 µM (K562 [19]): -45%
GI50 (NCI-H322M): 717 nM
LC50 (NCI-H322M): 4470 nM
TGI (NCI-H322M): 2000 nM
GI50 (A498): 1660 nM
LC50 (A498): 5500 nM
TGI (A498): 3030 nM
growth at 100 µM (DU-145): -98%
GI50 (BT-549 [20]): 1680 nM
TGI (BT-549 [20]): 3100 nM
growth at 0.01 µM (U-251 [21]): 97%
growth at 100 µM [22]: -21%
growth at 100 µM (MDA-MB-468): -2%
growth at 100 µM (SNB-19): -35%
